Values of other authors in patent US20060210638A1, “Injectable compositions of nanoparticulate immunosuppressive compounds” (Elan Pharma International Limited, priority 2005, published 2006).
Read-outs that look alike come from different tables or passages of the source. One block for each compound: values may come before it.

What was measured:
[1] = reputed
[2] = not given; remark: listed apart in the source
[3] = for reduction of mean AUC relative to fasted / reduction of mean Cmax relative to fasted: healthy volunteers (N=16)
[4] = for mean clearance: IV administration
[5] = not given; remark: listed apart in the source
[6] = in vitro studies
[7] = for mean time-to-peak concentration (Tmax): Rapamune Oral Solution
[8] = 11 liver transplant patients, 15 minutes after high fat (400 kcal, 34% fat) breakfast
[9] = given immediately following the meal
[10] = high-carbohydrate meal (668 kcal, 85% carbohydrate)
[11] = high-fat meal (848 kcal, 46% fat), 15 healthy volunteers

solubility in ethanol (in words) (ethanol): freely soluble
solubility in methanol and chloroform (in words) (methanol and chloroform): very soluble
solubility in water (in words) (water): practically insoluble
ratio of whole blood concentration to plasma concentration, average ([2]; U.S. study): 35
plasma protein binding ([2]; independent of concentration over 5-50 ng/mL): approximately 99%
decreased AUC compared to fasted state [3, 8]: 27±18%
decreased Cmax compared to fasted state [3, 8]: 50±19%
reduction of mean AUC relative to fasted ([3]; 1.5 hours following the meal): 39%
reduction of mean Cmax relative to fasted ([3]; 1.5 hours following the meal): 63%
reduction of mean AUC relative to fasted [3, 9]: 39%
reduction of mean Cmax relative to fasted [3, 9]: 71%
decrease of mean AUC [3, 10]: 28%
decrease of mean Cmax [3, 10]: 65%
Tmax lengthened [3, 11]: 5 fold
decrease of mean AUC [3, 11]: 37%
decrease of mean Cmax [3, 11]: 77%
correlation coefficient of trough concentration (Cmin) with AUC ([4]; 18 kidney transplant patients, trough 3 to 30 ng/mL at 10-12 hours post-dose): 0.93
correlation coefficient of trough concentration (Cmin) with AUC ([4]; 24 liver transplant patients, concentration range 10 to 60 ng/mL): 0.94
mean clearance ([4]; adult kidney transplant patients): 1.38 mL/min/kg
mean clearance ([4]; adult liver transplant patients): 0.883 mL/min/kg
mean clearance ([4]; healthy volunteers): 0.667 mL/min/kg
dose excreted unchanged in urine ([4]; in man): less than 1%
clearance of tacrolimus ([5]; IV): 0.483 ± 0.15 mL/min/kg
elimination half-life based on tacrolimus concentrations ([5]; IV): 43.5 ± 11.6 h
fecal elimination ([5]; IV): 92.4±1.0%
mean recovery of radiolabel ([5]; IV, 6 healthy volunteers): 77.8±12.7%
clearance of tacrolimus ([5]; oral): 2.87 ± 1.47 mL/min/kg
elimination half-life based on tacrolimus concentrations ([5]; oral): 48.4 ± 12.3 h
fecal elimination ([5]; oral): 92.6±30.7%
mean recovery of the radiolabel ([5]; oral): 94.9±30.7%
urinary elimination ([5]; oral): 2.3±1.1%
Compound: C=CC[C@@H]1/C=C(\C)C[C@H](C)C[C@H](OC)[C@H]2O[C@@](O)(C(=O)C(=O)N3CCCC[C@H]3C(=O)O[C@H](/C(C)=C/[C@@H]3CC[C@@H](O)[C@H](OC)C3)[C@H](C)[C@@H](O)CC1=O)[C@H](C)C[C@@H]2OC [Tacrolimus]
effectiveness relative to cyclosporine [1]: 100 times

Compound: C=CCC1C=C(C)CC(C)CC(OC)C2OC(O)(C(=O)C(=O)N3CCCCC3C(=O)OC(C(C)=CC3CCC(O)C(O)C3)C(C)C(O)CC1=O)C(C)CC2OC (stereo not shown) [31-demethyl metabolite]
activity relative to tacrolimus (in words) [6]: same activity as tacrolimus

stability when exposed to water (in words) (aqueous medium): rapidly hydrolyzes
solubility in benzyl alcohol, chloroform, acetone, and acetonitrile (in words) (benzyl alcohol, chloroform, acetone, acetonitrile): freely soluble
solubility in water (water): 20 micrograms per mL
solubility in water (in words) (water): insoluble
mean time-to-peak concentration (Tmax) ([7]; multiple oral doses, renal transplant recipients): approximately 2 hours
mean time-to-peak concentration (Tmax) ([7]; single dose, healthy subjects): approximately 1 hour
systemic availability ([7]; after Rapamune Oral Solution): approximately 14%
Compound: CO[C@H]1C[C@@H]2CC[C@@H](C)[C@@](O)(O2)C(=O)C(=O)N2CCCC[C@H]2C(=O)O[C@H]([C@H](C)C[C@@H]2CC[C@@H](O)[C@H](OC)C2)CC(=O)[C@H](C)/C=C(\C)[C@@H](O)[C@@H](OC)C(=O)[C@H](C)C[C@H](C)/C=C/C=C/C=C/1C [Sirolimus, (3S,6R,7E,9R,10R,12R,14S,15E,17E,19E,21S,23S,26R,27R ,34aS)-9,10,12,13,14,21,22,23,24,25,26,27,32,33,34,34a-hexadecahydro-9,27-dihydroxy-3-[(1 R )-2-[(1S,3R,4R)-4-hydroxy-3-methoxycyclohexyl]-1-methylethyl]-10,21-dimethoxy-6,8,12,14,20,26-hexamethyl-23,27-epoxy-3H-pyrido[2,1-c] [1,4] oxaazacyclohentriacontine-1,5,11,28,29(4H,6H,31H)-pentone]
